Measurements reported in ChEMBL document CHEMBL3991601, “The target landscape of clinical kinase drugs” (Science, 2017).
Activity calls are given as the source filed them. Cut-off read from the data, not from the text of the source, for most assays here: actives have a measured Kd and inactives only a lower limit.

Key:
[1] = molecular target: RAC-alpha serine/threonine-protein kinase (Homo sapiens, UniProt P31749)
[2] = molecular target: T1, Phenylalanine--tRNA ligase beta subunit (Homo sapiens, UniProt Q9NSD9)
T1 sequence (Q9NSD9 whole entry): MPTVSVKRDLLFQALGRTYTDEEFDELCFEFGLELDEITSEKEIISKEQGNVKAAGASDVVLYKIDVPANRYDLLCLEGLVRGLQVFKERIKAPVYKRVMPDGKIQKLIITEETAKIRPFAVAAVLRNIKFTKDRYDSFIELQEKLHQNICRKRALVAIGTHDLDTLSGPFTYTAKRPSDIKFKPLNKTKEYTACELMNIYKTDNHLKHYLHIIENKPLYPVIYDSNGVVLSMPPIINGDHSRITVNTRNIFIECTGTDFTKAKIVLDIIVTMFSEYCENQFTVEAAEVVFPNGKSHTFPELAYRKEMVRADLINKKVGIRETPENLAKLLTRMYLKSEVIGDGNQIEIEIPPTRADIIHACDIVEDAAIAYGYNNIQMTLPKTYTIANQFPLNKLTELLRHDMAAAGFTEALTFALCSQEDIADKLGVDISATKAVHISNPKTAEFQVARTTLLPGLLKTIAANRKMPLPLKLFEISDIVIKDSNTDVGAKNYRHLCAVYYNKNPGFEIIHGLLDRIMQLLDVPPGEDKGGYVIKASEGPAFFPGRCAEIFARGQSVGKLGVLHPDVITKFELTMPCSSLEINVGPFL

[3] = molecular target: Tyrosine-protein kinase Fer (Homo sapiens, UniProt P16591)
Chain of Tyrosine-protein kinase Fer (P16591 whole entry): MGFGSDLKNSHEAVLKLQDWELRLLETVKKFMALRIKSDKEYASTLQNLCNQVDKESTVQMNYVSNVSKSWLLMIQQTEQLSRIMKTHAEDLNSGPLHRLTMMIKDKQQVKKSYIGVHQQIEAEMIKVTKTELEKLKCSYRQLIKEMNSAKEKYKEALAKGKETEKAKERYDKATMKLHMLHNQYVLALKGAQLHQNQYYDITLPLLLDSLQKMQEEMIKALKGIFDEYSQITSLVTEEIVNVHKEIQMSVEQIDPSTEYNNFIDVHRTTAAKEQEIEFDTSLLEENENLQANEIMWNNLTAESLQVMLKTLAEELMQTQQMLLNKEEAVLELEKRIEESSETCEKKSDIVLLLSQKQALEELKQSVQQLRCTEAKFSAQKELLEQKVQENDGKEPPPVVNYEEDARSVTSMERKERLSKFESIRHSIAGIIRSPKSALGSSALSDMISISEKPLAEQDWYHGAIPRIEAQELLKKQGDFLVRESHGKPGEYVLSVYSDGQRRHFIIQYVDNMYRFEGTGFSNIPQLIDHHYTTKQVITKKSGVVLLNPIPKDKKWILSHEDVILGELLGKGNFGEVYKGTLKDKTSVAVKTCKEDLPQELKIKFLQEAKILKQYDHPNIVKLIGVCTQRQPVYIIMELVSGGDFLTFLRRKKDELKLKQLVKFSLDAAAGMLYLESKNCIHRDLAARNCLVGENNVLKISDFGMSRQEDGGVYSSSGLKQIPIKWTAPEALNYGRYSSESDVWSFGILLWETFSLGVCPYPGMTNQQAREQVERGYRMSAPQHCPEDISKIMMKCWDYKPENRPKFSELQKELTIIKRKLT

[4] = molecular target: Mitogen-activated protein kinase 10 (Homo sapiens, UniProt P53779)
Chain of Mitogen-activated protein kinase 10 (P53779 whole entry): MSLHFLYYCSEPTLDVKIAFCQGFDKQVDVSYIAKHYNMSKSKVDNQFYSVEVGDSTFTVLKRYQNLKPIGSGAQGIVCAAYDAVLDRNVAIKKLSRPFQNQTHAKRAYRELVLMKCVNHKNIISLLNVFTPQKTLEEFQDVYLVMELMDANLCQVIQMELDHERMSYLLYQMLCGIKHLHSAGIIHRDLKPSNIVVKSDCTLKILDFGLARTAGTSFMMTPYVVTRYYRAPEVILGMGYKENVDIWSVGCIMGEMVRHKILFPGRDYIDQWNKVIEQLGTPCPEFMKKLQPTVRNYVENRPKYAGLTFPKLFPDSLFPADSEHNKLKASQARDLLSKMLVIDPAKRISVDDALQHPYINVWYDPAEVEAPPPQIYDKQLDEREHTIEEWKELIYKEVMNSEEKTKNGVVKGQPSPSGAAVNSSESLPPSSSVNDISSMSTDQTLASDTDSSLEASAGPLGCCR

[5] = molecular target: Mitogen-activated protein kinase 9 (Homo sapiens, UniProt P45984)
Chain of Mitogen-activated protein kinase 9 (P45984 whole entry, canonical isoform): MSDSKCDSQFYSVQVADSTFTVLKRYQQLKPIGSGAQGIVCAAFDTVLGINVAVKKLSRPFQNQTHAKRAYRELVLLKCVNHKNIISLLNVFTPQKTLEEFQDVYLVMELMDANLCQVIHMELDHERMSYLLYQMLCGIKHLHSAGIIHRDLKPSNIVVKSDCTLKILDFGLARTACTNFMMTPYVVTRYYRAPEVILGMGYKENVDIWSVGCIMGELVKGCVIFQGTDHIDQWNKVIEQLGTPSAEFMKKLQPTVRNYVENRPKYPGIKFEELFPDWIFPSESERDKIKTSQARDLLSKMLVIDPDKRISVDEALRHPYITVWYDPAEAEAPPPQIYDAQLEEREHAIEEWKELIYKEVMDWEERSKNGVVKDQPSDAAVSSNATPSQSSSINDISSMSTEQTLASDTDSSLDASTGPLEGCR

[6] = molecular target: T2, Phosphorylase b kinase gamma catalytic chain, liver/testis isoform (Homo sapiens, UniProt P15735)
T2 sequence (P15735 whole entry): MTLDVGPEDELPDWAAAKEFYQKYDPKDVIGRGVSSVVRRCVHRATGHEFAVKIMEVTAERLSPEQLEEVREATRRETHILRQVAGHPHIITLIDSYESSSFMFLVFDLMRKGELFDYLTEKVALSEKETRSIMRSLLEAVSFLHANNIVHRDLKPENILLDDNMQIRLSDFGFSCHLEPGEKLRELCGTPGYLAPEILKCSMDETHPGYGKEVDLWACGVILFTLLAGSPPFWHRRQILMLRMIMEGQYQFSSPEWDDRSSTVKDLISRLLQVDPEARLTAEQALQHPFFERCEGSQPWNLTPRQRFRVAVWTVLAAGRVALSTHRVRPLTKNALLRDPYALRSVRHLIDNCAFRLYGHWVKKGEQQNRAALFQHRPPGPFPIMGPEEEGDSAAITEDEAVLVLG

[7] = molecular target: STE20-like serine/threonine-protein kinase (Homo sapiens, UniProt Q9H2G2)
Chain of STE20-like serine/threonine-protein kinase (Q9H2G2 whole entry): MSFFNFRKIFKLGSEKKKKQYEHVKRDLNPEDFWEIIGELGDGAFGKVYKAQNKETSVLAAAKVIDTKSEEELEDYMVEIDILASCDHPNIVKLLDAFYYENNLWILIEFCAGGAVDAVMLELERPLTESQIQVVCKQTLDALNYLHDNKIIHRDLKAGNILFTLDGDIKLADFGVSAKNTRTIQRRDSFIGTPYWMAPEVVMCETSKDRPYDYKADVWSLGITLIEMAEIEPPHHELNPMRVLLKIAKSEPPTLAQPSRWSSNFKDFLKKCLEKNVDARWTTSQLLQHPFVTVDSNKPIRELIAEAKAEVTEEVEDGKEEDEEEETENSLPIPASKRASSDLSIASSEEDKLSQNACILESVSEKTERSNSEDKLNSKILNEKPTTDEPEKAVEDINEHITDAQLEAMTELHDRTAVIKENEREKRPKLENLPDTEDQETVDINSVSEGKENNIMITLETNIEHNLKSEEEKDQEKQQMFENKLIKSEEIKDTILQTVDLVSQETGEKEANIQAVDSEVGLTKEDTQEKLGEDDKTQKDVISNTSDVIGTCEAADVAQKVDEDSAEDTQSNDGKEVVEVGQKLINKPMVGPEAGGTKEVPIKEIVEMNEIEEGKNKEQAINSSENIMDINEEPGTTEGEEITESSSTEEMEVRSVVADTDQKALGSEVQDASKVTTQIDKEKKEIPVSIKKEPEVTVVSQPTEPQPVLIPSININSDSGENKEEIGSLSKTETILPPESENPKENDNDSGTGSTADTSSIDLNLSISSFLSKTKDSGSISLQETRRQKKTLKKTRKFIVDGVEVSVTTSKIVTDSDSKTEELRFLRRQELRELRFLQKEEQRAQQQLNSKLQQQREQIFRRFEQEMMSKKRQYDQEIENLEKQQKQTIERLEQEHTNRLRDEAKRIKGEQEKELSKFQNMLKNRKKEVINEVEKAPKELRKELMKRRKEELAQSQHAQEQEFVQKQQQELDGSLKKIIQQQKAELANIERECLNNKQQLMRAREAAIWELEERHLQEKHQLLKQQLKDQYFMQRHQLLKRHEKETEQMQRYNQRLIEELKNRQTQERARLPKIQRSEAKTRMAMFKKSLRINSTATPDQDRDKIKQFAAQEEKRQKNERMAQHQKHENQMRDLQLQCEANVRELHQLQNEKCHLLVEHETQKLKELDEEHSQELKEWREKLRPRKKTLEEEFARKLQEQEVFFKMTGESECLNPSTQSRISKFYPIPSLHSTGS

[8] = molecular target: U5 small nuclear ribonucleoprotein 200 kDa helicase (Homo sapiens, UniProt O75643)
[9] = molecular target: Serine/threonine-protein kinase 10 (Homo sapiens, UniProt O94804)
Chain of Serine/threonine-protein kinase 10 (O94804 whole entry): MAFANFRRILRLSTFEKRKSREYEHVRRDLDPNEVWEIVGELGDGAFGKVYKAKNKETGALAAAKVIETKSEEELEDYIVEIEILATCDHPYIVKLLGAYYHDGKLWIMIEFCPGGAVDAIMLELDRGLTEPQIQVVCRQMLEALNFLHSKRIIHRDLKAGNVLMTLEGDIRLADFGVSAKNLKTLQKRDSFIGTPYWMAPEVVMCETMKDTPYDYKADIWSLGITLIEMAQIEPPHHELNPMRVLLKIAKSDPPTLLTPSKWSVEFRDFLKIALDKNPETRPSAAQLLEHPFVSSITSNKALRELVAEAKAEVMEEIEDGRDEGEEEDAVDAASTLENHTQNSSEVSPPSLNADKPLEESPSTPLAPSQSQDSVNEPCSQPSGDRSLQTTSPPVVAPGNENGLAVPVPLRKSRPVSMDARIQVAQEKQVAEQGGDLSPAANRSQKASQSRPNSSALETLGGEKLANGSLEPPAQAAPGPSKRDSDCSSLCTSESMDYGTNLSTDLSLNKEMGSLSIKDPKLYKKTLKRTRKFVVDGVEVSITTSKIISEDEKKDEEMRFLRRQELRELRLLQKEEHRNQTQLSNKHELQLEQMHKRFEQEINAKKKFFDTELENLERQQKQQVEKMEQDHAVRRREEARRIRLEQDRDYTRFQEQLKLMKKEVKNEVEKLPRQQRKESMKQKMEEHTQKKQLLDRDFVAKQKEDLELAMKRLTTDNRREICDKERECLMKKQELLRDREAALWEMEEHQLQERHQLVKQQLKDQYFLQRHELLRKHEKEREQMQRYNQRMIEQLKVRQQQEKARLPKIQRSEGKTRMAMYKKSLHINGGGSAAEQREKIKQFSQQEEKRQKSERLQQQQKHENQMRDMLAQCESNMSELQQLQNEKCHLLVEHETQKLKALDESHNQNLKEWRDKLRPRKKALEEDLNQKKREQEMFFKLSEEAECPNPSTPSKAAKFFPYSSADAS

[10] = molecular target: T3, Serine/threonine-protein kinase 4 (Homo sapiens, UniProt Q13043)
T3 sequence (Q13043 whole entry): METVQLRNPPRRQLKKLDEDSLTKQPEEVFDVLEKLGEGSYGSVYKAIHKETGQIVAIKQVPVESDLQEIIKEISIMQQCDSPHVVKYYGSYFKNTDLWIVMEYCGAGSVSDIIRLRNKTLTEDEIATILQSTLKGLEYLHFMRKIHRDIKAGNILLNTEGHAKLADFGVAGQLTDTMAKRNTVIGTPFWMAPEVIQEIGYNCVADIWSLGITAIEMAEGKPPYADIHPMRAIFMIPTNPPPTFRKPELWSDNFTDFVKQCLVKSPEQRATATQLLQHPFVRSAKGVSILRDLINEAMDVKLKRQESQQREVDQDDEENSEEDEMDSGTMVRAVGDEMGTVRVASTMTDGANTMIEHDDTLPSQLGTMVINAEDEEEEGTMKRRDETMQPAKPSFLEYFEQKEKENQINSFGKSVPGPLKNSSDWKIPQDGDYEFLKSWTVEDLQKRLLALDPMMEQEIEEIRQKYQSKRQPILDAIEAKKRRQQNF

[11] = molecular target: Tyrosine-protein kinase SYK (Homo sapiens, UniProt P43405)
[12] = molecular target: T4, Serine/threonine-protein kinase TAO1 (Homo sapiens, UniProt Q7L7X3)
T4 sequence (Q7L7X3 whole entry): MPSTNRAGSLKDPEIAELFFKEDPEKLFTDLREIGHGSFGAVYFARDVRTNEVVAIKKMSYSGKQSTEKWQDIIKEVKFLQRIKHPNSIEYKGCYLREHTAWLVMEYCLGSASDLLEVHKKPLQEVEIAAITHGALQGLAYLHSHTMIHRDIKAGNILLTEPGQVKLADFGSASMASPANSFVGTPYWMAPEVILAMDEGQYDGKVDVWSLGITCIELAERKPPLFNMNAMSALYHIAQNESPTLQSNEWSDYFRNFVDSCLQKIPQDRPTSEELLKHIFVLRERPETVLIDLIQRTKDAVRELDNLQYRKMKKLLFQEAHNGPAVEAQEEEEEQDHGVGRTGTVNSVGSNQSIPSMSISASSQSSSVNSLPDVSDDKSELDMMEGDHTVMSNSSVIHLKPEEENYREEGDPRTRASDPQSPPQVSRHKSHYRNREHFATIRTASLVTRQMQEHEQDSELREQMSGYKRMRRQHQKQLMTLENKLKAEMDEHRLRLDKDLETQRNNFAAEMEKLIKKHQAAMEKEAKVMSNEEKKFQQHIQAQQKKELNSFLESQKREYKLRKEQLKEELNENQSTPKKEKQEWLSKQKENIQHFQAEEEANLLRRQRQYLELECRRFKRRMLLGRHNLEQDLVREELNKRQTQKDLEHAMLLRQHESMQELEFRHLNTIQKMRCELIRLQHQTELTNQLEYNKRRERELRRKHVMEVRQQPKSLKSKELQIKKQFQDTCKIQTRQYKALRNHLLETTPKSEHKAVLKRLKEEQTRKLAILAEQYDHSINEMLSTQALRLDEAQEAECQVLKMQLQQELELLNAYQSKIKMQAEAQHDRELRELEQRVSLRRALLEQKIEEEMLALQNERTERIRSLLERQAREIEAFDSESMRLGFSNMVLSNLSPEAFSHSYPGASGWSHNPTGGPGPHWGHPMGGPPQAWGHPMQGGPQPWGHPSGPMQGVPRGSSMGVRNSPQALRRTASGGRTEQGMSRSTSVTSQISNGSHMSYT
Note: in the data inactive means no Kd found up to 30 µM.

Chain of RAC-alpha serine/threonine-protein kinase (P31749 whole entry): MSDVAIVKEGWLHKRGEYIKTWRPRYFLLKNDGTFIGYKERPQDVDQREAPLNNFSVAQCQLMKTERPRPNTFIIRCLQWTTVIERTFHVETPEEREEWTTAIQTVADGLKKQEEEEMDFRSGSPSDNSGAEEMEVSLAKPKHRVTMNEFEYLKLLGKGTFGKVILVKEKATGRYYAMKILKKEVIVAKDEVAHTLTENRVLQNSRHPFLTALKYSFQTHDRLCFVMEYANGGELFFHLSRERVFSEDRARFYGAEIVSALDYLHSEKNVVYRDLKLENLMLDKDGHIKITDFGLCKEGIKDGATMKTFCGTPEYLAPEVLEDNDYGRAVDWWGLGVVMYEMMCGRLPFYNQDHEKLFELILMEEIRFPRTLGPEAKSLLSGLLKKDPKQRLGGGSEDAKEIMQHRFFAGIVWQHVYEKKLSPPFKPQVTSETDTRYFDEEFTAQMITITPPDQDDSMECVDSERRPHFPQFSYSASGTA

Kd [1]	Kd [2]	Kd [3]	Kd [4]	Kd [5]	Kd [6]	Kd [7]	Kd [8]	Kd [9]	Kd [10]	Kd [11]	Kd [12]	SMILES
> 30 µM (inactive)	> 30 µM (inactive)	> 30 µM (inactive)	> 30 µM (inactive)	> 30 µM (inactive)	> 30 µM (inactive)	> 30 µM (inactive)	> 30 µM (inactive)	> 30 µM (inactive)	> 30 µM (inactive)	> 30 µM (inactive)	> 30 µM (inactive)	O=C(Nc1ccc(OC(F)(F)F)cc1)c1sccc1NCc1ccnc2ccccc12 [OSI-930]
> 30 µM (inactive)	> 30 µM (inactive)	> 30 µM (inactive)	> 30 µM (inactive)	> 30 µM (inactive)	> 30 µM (inactive)		> 30 µM (inactive)	> 30 µM (inactive)	> 30 µM (inactive)	> 30 µM (inactive)	> 30 µM (inactive)	CC(C)(O)CC(=O)NCCn1ccc2ncnc(Nc3ccc(Oc4cccc(C(F)(F)F)c4)c(Cl)c3)c21 [TAK-285]
> 30 µM (inactive)	> 30 µM (inactive)	> 30 µM (inactive)	> 30 µM (inactive)	> 30 µM (inactive)	4.62 µM (active)		> 30 µM (inactive)	1.28 µM (active)	> 30 µM (inactive)	> 30 µM (inactive)	> 30 µM (inactive)	COc1cccc(Nc2ncnn3ccc(CN4CC[C@@H](N)[C@H](O)C4)c23)c1 [BMS-690514]
> 30 µM (inactive)	> 30 µM (inactive)	> 30 µM (inactive)	> 30 µM (inactive)	> 30 µM (inactive)	> 30 µM (inactive)	> 30 µM (inactive)	> 30 µM (inactive)	> 30 µM (inactive)		> 30 µM (inactive)	> 30 µM (inactive)	CCOc1ccn(-c2ccc(F)cc2)c(=O)c1C(=O)Nc1ccc(Oc2ccnc(N)c2Cl)c(F)c1 [BMS-777607]

The remaining lines, values behind:

SMILES	Kd [1]	Kd [2]	Kd [3]	Kd [4]	Kd [5]	Kd [6]	Kd [7]	Kd [8]	Kd [9]	Kd [10]	Kd [11]	Kd [12]
O=C(NC[C@H](O)CO)c1ccncc1Nc1ccc(I)cc1F [PIMASERTIB]	> 30 µM (inactive)	> 30 µM (inactive)	> 30 µM (inactive)	> 30 µM (inactive)	> 30 µM (inactive)	> 30 µM (inactive)	> 30 µM (inactive)	> 30 µM (inactive)	> 30 µM (inactive)	> 30 µM (inactive)	> 30 µM (inactive)	> 30 µM (inactive)
O=C(NOC[C@H](O)CO)c1ccc(F)c(F)c1Nc1ccc(I)cc1F [MIRDAMETINIB]	> 30 µM (inactive)	> 30 µM (inactive)	> 30 µM (inactive)	> 30 µM (inactive)	> 30 µM (inactive)	> 30 µM (inactive)	> 30 µM (inactive)	> 30 µM (inactive)	> 30 µM (inactive)	> 30 µM (inactive)	> 30 µM (inactive)	> 30 µM (inactive)
COc1cc(Nc2ncc(F)c(Nc3ccc4c(n3)N(COP(=O)(O)O)C(=O)C(C)(C)O4)n2)cc(OC)c1OC [FOSTAMATINIB]	> 30 µM (inactive)	> 30 µM (inactive)	> 30 µM (inactive)	> 30 µM (inactive)	1.53 µM (active)	> 30 µM (inactive)	> 30 µM (inactive)	> 30 µM (inactive)	> 30 µM (inactive)	> 30 µM (inactive)		> 30 µM (inactive)
CNC(=O)c1cc(COc2nnc(Nc3ccc(Cl)cc3)c3ccoc23)ccn1 [TELATINIB]	> 30 µM (inactive)	> 30 µM (inactive)	> 30 µM (inactive)	> 30 µM (inactive)	> 30 µM (inactive)	> 30 µM (inactive)	> 30 µM (inactive)	> 30 µM (inactive)	> 30 µM (inactive)	> 30 µM (inactive)	> 30 µM (inactive)	> 30 µM (inactive)
O=c1[nH]c([C@@H]2CCCN2)nc2c1oc1ccc(Cl)cc12	> 30 µM (inactive)		> 30 µM (inactive)	> 30 µM (inactive)	> 30 µM (inactive)	> 30 µM (inactive)	> 30 µM (inactive)	> 30 µM (inactive)	> 30 µM (inactive)	> 30 µM (inactive)	> 30 µM (inactive)	> 30 µM (inactive)
CC(C)CC(=O)Nc1[nH]nc2c1CN(C(=O)C1CCN(C)CC1)C2(C)C [PHA-793887]	> 30 µM (inactive)	0.003 µM		> 30 µM (inactive)	> 30 µM (inactive)	1 µM (active)	> 30 µM (inactive)	> 30 µM (inactive)	> 30 µM (inactive)	> 30 µM (inactive)	> 30 µM (inactive)	> 30 µM (inactive)
CCc1nc(C(N)=O)c(Nc2ccc(N3CCC(N4CCN(C)CC4)CC3)c(OC)c2)nc1NC1CCOCC1 [GILTERITINIB]	> 30 µM (inactive)	> 30 µM (inactive)		0.512 µM (active)	0.43 µM (active)		0.068 µM (active)	1.38 µM (active)	0.149 µM (active)	> 30 µM (inactive)	4.04 µM (active)	> 30 µM (inactive)
Cc1cc(-c2cc(OC(=O)c3ccccc3)ccc2Cl)cc2nnc(Nc3ccc(OCCN4CCCC4)cc3)nc12 [TG100-801]	> 30 µM (inactive)	> 30 µM (inactive)	> 30 µM (inactive)	> 30 µM (inactive)	> 30 µM (inactive)	> 30 µM (inactive)	> 30 µM (inactive)		> 30 µM (inactive)	> 30 µM (inactive)	> 30 µM (inactive)	> 30 µM (inactive)
